From patent US20110289824A1, “COMPOUNDS, METHODS, AND DEVICES FOR DETECTING AND/OR TREATING INSECT INFESTATION” (priority 2010, published 2011) come the findings set out here.

The structures appear in SMILES notation.

Test [1] concerns Cimex lectularius (adults). As to the kind of experiment: Device choice test in arenas: treated device vs untreated control at 0.1 mg and 0.5 mg (Tables 4 and 5). Format: in vivo. The conditions noted are these: 20 bugs per arena, against UTC device. The protocol: In this example, 20 Cimex lectularius (adults) were placed in plastic boxes (20×20 cm). The bottom of each box was covered with paper. A piece of folded filter paper served as a shelter for the Cimex lectularius bed bugs. The bed bugs were fed two days before they were put into the test-arenas. As set forth in Table 4, the ability of 2-Heptanone and 2-Heptanone-oxime to attract bed bugs at a concentration of 0.1 mg and 0.5 mg was evaluated. Device (A) includes 2-Heptanone, 2-Heptanone oxime, or both 2-Heptanone and 2-Heptanone oxime. Device (B) served as an untreated control. [table] […] The total number of bugs per arena was 20.

Test [2] deals with Cimex lectularius (adults). As to the kind of experiment: Device choice test in arenas: compound device vs mixture device vs untreated control (Tables 2 and 3). In kind it is in vivo. The conditions noted are these: 1.0 mg of each compound per device (Device A), 20 bugs per arena, against mixture device and UTC. The protocol: The attraction, arresting, or aggregation of bed bugs from the species Cimex lectularius to cholesterol, 2-Heptanone, and 2-Heptanone oxime was evaluated in Tables 2 and 3 by the following methodology. In this example, 20 Cimex lectularius (adults) were placed in plastic boxes (20×20 cm). The bottom of each box was covered with paper. A piece of folded filter paper served as a shelter for the Cimex lectularius bed bugs. The bed bugs were fed two days before they were put into the test-arenas. As set forth in Table 2, three types of devices were compared: Device (A): a device containing cholesterol (Box 1), a device containing 2-Heptanone (Box 2), a device containing 2-Heptanone-oxime (Box 3), and a device containing 2-Heptanone and 2-Heptanone-oxime (Box 4); Device (B): a device containing a mixture of cholesterol, 2-Heptanone, and 2-Heptanone-oxime (Box 1-4); and Device (C) a device without an attractant, arresting, or aggregating compound, serving as a control (“UTC”). The concentrations of the compounds tested are as follows: Cholesterol—1% in ethanol, 0.1 ml per detection device (1 mg a.i.); 2-Heptanone—1% in ethanol, 0.1 ml per detection device (1 mg a.i.); and 2-Heptanone oxime—1% in ethanol, 0.1 ml per detection device (1 mg a.i.). [table] The number of bed bugs in the different devices and on the bottom of the arenas were counted at day 1, day 4, and day 7 after the start of the trial. The total number of bugs per arena was 20. The relative effectiveness of cholesterol, 2-Heptanone, and 2-Heptanone-oxime in attracting, arresting, or aggregating bed bugs was evaluated in Table 3.

As for `CCCCCC(C)=NO` [2-Heptanone-oxime, 2-Heptanone oxime], the “Number of bed bugs in the device (Compounds + concentrations)” value is recorded as 12 in test [1] (0.1 mg per device, day 1); 14 in test [1] (0.1 mg per device, day 3); 15 in test [1] (0.1 mg per device, day 6); 8 in test [1] (0.5 mg per device, day 1); 11 in test [1] (0.5 mg per device, day 3); 12 in test [1] (0.5 mg per device, day 6). The “Number of bed bugs in the device (Compounds)” value (from here on “Number … (Compounds)”) in test [2] (day 1), in test [2] (day 4) and in test [2] (day 7) was 13 each time.
In the case of `CCCCCC(C)=O` [2-Heptanone], the “Number of bed bugs in the device (Compounds + concentrations)” value in test [1] (0.1 mg per device, day 1) is given as 0; in test [1] (0.1 mg per device, day 3), 0; in test [1] (0.1 mg per device, day 6) it was 1; in test [1] (0.5 mg per device, day 1), 0; in test [1] (0.5 mg per device, day 3), 0; in test [1] (0.5 mg per device, day 6), 1. For the same compound, the “Number … (Compounds)” value in test [2] (day 1), in test [2] (day 4) and in test [2] (day 7) was 2 each time.
Regarding `CC(C)CCC[C@@H](C)[C@H]1CC[C@H]2[C@@H]3CC=C4C[C@@H](O)CC[C@]4(C)[C@H]3CC[C@]12C` [Cholesterol, cholesterol], the “Number … (Compounds)” value in test [2] (day 1), in test [2] (day 4) and in test [2] (day 7) was 1 in each case.
